Measured values published in ChEMBL document CHEMBL1134520, “Potent somatostatin undecapeptide agonists selective for somatostatin receptor 1 (sst1)” (J Med Chem, 2001).
Bridge positions count the residues as written; N and C are the ends. Square brackets hold non-standard residues; d marks the D form. Peptide text beside a SMILES is read from it. Phe(4-NO2) = N[C@@H](Cc1ccc([N+](=O)[O-])cc1)C(=O)O; Phe(4-CH2NHiPr) = CC(C)NCc1ccc(C[C@H](N)C(=O)O)cc1; d2Nal = N[C@H](Cc1ccc2ccccc2c1)C(=O)O

What was measured:
[1] = molecular target: Somatostatin receptor type 4 (Homo sapiens, UniProt P31391); experiment: Tested for ability to bind to 20 uM thick cryostat sections of a membrane pellet of cells transfected with human cloned somatostatin (sst) receptor subtype 4.
[2] = molecular target: Somatostatin receptor type 2 (Homo sapiens, UniProt P30874); experiment: Tested for ability to bind to 20 uM thick cryostat sections of a membrane pellet of cells transfected with human cloned somatostatin (sst) receptor subtype 2.
[3] = molecular target: Somatostatin receptor type 3 (Homo sapiens, UniProt P32745); experiment: Tested for ability to bind to 20 uM thick cryostat sections of a membrane pellet of cells transfected with human cloned somatostatin (sst) receptor subtype 3.
[4] = molecular target: Somatostatin receptor type 5 (Homo sapiens, UniProt P35346); experiment: Tested for ability to bind to 20 uM thick cryostat sections of a membrane pellet of cells transfected with human cloned somatostatin (sst) receptor subtype 5.
[5] = molecular target: Somatostatin receptor type 1 (Homo sapiens, UniProt P30872); experiment: Tested for ability to bind to 20 uM thick cryostat sections of a membrane pellet of cells transfected with human cloned somatostatin (sst) receptor subtype 1.
Sequence of Somatostatin receptor type 1 (P30872 whole entry): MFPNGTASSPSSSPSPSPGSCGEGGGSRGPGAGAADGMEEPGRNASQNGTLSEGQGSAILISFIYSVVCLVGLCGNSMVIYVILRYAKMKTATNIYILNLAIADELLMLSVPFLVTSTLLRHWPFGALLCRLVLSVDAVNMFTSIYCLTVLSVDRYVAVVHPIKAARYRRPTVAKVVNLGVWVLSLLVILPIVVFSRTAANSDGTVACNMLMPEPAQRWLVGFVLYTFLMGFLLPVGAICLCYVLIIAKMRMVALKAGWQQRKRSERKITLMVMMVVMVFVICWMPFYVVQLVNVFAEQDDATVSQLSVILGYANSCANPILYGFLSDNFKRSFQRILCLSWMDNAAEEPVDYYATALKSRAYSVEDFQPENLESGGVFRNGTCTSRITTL

Sequence of Somatostatin receptor type 3 (P32745 whole entry): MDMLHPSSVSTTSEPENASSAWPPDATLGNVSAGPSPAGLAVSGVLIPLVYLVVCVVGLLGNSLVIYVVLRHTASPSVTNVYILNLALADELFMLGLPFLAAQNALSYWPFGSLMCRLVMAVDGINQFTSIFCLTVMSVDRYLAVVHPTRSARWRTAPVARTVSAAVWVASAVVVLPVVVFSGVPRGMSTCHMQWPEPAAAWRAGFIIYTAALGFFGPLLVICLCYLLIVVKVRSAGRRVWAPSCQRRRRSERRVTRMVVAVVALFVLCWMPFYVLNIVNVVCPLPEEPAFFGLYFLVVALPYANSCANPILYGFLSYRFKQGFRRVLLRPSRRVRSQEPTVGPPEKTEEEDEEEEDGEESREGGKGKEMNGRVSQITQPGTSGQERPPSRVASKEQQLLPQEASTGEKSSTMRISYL
Sequence of Somatostatin receptor type 5 (P35346 whole entry): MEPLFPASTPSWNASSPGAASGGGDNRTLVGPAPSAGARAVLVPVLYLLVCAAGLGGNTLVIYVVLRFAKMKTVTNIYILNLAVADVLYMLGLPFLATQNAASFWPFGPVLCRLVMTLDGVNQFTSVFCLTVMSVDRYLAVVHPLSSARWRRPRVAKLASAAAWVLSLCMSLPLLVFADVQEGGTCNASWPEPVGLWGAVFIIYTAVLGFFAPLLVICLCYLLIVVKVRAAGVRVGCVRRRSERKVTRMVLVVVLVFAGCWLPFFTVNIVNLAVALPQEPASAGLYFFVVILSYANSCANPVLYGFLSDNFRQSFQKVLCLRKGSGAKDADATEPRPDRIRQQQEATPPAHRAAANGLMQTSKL
Sequence of Somatostatin receptor type 2 (P30874 whole entry): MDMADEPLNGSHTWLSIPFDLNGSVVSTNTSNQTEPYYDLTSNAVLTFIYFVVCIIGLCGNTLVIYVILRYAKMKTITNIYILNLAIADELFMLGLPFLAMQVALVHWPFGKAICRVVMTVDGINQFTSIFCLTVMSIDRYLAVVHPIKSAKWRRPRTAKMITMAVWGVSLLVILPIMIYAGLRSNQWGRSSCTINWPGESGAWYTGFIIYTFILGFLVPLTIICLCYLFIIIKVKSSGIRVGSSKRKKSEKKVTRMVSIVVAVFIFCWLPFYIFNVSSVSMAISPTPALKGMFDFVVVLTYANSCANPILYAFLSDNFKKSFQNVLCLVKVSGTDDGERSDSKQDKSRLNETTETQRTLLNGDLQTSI
Sequence of Somatostatin receptor type 4 (P31391 whole entry): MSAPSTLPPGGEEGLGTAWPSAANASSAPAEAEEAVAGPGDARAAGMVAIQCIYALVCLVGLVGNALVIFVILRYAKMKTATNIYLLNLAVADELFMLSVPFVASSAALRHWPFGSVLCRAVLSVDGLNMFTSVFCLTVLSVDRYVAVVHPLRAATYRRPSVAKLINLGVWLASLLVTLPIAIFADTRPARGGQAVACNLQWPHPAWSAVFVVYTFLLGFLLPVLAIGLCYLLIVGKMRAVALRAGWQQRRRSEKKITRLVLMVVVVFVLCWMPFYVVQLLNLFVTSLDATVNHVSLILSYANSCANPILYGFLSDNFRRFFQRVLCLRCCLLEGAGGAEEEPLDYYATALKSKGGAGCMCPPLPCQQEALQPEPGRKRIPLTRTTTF

Row | Compound | IC50 [1] | IC50 [2] | IC50 [3] | IC50 [4] | IC50 [5]
1 | CC(C)NCc1ccc(C[C@@H]2NC(=O)[C@@H](Cc3c[nH]c4ccccc34)NC(=O)[C@H](Cc3ccccc3)NC(=O)[C@H](Cc3ccccc3)NC(=O)[C@H](CCCCN)NC(=O)[C@@H](N)CSSC[C@@H](C(=O)O)NC(=O)[C@@H](CO)NC(=O)[C@H]([C@@H](C)O)NC(=O)[C@H](Cc3ccccc3)NC(=O)[C@H]([C@@H](C)O)NC2=O)cc1 (H-CKFF[dW][Phe(4-CH2NHiPr)]TFT[dS]C-OH; disulfide 1-11) | > 1000 nM | > 10000 nM | > 1000 nM | > 1000 nM | 187 nM
2 | CC(C)NCc1ccc(C[C@@H]2NC(=O)[C@@H](Cc3ccc4ccccc4c3)NC(=O)[C@H](Cc3ccc([N+](=O)[O-])cc3)NC(=O)[C@H](Cc3ccccc3)NC(=O)[C@H](CCCCN)NC(=O)[C@@H](N)CSSC[C@@H](C(=O)O)NC(=O)[C@H](CO)NC(=O)[C@H]([C@@H](C)O)NC(=O)[C@H](Cc3ccccc3)NC(=O)[C@H]([C@@H](C)O)NC2=O)cc1 (H-CKF[Phe(4-NO2)][d2Nal][Phe(4-CH2NHiPr)]TFTSC-OH; disulfide 1-11) | > 1000 nM | > 1000 nM | 975 nM | > 1000 nM | 35 nM
3 | CC(C)CN(Cc1ccc(C[C@@H]2NC(=O)[C@@H](Cc3c[nH]c4ccccc34)NC(=O)[C@H](Cc3ccccc3)NC(=O)[C@H](Cc3ccccc3)NC(=O)[C@H](CCCCN)NC(=O)[C@@H](N)CSSC[C@@H](C(=O)O)NC(=O)[C@H](CO)NC(=O)[C@H]([C@@H](C)O)NC(=O)[C@H](Cc3ccccc3)NC(=O)[C@H]([C@@H](C)O)NC2=O)cc1)CC(C)C | > 10000 nM | > 10000 nM | > 10000 nM | > 10000 nM | > 1000 nM
4 | CC(C)NCc1ccc(C[C@@H]2NC(=O)[C@@H](Cc3c[nH]c4ccccc34)NC(=O)[C@H](Cc3ccc(O)cc3)NC(=O)[C@H](Cc3ccccc3)NC(=O)[C@H](CCCCN)NC(=O)[C@@H](N)CSSC[C@@H](C(=O)O)NC(=O)[C@H](CO)NC(=O)[C@H]([C@@H](C)O)NC(=O)[C@H](Cc3ccccc3)NC(=O)[C@H]([C@@H](C)O)NC2=O)cc1 | > 10000 nM | > 10000 nM | > 10000 nM | > 1000 nM | 530 nM
5 | CCN=C(NCC)NCCCC[C@@H]1NC(=O)[C@@H](Cc2c[nH]c3ccccc23)NC(=O)[C@H](Cc2ccccc2)NC(=O)[C@H](Cc2ccccc2)NC(=O)[C@H](CCCCN)NC(=O)[C@@H](N)CSSC[C@@H](C(=O)O)NC(=O)[C@H](CO)NC(=O)[C@H]([C@@H](C)O)NC(=O)[C@H](Cc2ccccc2)NC(=O)[C@H]([C@@H](C)O)NC1=O | > 1000 nM | > 10000 nM | > 1000 nM | > 10000 nM | 450 nM
6 | CC(C)NCc1ccc(C[C@@H]2NC(=O)[C@@H](Cc3cn(Cc4ccccc4)cn3)NC(=O)[C@H](Cc3ccccc3)NC(=O)[C@H](Cc3ccccc3)NC(=O)[C@H](CCCCN)NC(=O)[C@@H](N)CSSC[C@@H](C(=O)O)NC(=O)[C@H](CO)NC(=O)[C@H]([C@@H](C)O)NC(=O)[C@H](Cc3ccccc3)NC(=O)[C@H]([C@@H](C)O)NC2=O)cc1 | > 10000 nM | > 1000 nM | > 1000 nM | > 10000 nM | > 1000 nM

The next lines start with the values.

Row | IC50 [1] | IC50 [2] | IC50 [3] | IC50 [4] | IC50 [5] | Compound
7 | > 1000 nM | > 1000 nM | 633 nM | > 1000 nM | 24 nM | CC(C)NCc1ccc(C[C@@H]2NC(=O)[C@@H](Cc3ccc4ccccc4c3)NC(=O)[C@H](Cc3ccccc3)NC(=O)[C@H](Cc3ccccc3)NC(=O)[C@H](CCCCN)NC(=O)[C@@H](NC(=O)[C@@H](N)Cc3ccc(O)cc3)CSSC[C@@H](C(=O)O)NC(=O)[C@H](CO)NC(=O)[C@H]([C@@H](C)O)NC(=O)[C@H](Cc3ccccc3)NC(=O)[C@H]([C@@H](C)O)NC2=O)cc1
8 | 1.7 nM | 42.5 nM | 3.4 nM | 5 nM | 1 nM | C[C@H](N)C(=O)NCC(=O)N[C@H]1CSSC[C@@H](C(=O)O)NC(=O)[C@H](CO)NC(=O)[C@H]([C@@H](C)O)NC(=O)[C@H](Cc2ccccc2)NC(=O)[C@H]([C@@H](C)O)NC(=O)[C@H](CCCCN)NC(=O)[C@@H](Cc2c[nH]c3ccccc23)NC(=O)[C@H](Cc2ccccc2)NC(=O)[C@H](Cc2ccccc2)NC(=O)[C@H](CCCCN)NC1=O (H-AGCKFF[dW]KTFTSC-OH; disulfide 3-13)
